Experimental findings from patent publication US20240423995A1, “C-KIT INHIBITORS AND USES FOR TREATING AND PREVENTING INFLAMMATORY CONDITIONS” (GEORGETOWN UNIVERSITY, priority 2023, published 2024) are described below.

The term inhibition denotes the drop in the measured response relative to a control, in per cent. Read a high inhibition as a strong effect. One may read the IC50 as the concentration that inhibits the measured activity by half. Lower therefore signals greater potency. A word on the MTD: it is the largest dose that counted as tolerated. Higher therefore signals better tolerability.

For data set [1], the target named is T1, KIT (V559D) (Homo sapiens, UniProt P10721, V559D).
T1 construct: purchased Eurofins DiscoverX Corporation
T1 sequence (P10721 26-976 V559D): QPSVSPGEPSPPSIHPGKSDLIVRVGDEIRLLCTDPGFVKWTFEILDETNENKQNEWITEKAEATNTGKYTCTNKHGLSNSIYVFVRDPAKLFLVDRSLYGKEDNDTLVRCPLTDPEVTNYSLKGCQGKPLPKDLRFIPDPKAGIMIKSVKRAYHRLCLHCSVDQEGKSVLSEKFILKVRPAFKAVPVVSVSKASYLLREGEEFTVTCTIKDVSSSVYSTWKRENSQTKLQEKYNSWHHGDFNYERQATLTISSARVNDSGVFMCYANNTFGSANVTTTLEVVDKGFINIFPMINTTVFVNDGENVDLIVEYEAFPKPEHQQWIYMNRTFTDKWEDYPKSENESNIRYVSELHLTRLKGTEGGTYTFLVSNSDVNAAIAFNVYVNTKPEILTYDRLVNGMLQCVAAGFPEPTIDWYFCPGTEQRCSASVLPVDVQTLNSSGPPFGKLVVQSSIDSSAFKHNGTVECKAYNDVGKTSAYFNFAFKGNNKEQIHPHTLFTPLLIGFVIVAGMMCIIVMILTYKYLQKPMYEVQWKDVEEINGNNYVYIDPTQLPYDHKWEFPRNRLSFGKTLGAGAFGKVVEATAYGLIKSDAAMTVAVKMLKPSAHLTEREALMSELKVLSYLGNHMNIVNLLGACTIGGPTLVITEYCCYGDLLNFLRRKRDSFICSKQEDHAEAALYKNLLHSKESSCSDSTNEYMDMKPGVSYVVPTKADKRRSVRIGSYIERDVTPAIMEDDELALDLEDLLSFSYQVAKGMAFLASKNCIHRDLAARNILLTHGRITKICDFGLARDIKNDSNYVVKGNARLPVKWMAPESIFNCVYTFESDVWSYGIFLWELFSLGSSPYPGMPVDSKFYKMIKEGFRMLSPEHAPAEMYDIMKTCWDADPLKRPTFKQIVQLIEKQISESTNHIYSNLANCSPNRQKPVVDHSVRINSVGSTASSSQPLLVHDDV
In words: KINOMEscan competition binding screen, KIT (V559D). Conditions: for remaining binding at 10 µM: read-out: % Ctrl @ 10 μM. The procedure: (§1) The KINOMEscan™ screening platform (Eurofins DiscoverX Corporation, San Diego, USA) was performed using an active site-directed competition binding assay to quantitatively measure interactions between BK40143, BK40197, BK40195, and BK40196 and more than 450 human kinases and disease relevant mutant variants. […] Screening “hits” were identified by measuring the amount of kinase captured in test (BK40143, BK40197, BK40195, and BK40196) versus control samples by using a quantitative and ultra-sensitive qPCR method that detects the associated DNA label. BK40143, BK40197, BK40195, and BK40196 were screened at 10 μM concentration, and results for primary screen binding interactions were reported as ‘% Ctrl’ (POC), where lower numbers indicate stronger hits and calculated as follows:
(§2) [formula] • test compound=BK40143 or BK40197 or BK40195 or BK40196 • negative control=DMSO (100% Ctrl) • positive control=control compound (0% Ctrl)
(§3) Based on screening data of profiled compounds, a proportional relationship between primary screening results and corresponding compound/target affinities can be described as binding constants (Kd values) for the indicated ranges of percent of control (PoC) values, with tighter binding (higher affinity) interactions associated with lower PoC values, and weaker binding (lower affinity) associated with higher PoC values. Briefly, kinase-tagged T7 phage strains were grown in parallel in 24-well blocks in an E. coli host derived from the BL21 strain. E. coli were grown to log-phase and infected with T7 phage from a frozen stock (multiplicity of infection=0.4) and incubated with shaking at 32° C. until lysis (90-150 minutes). The lysates were centrifuged (6,000×g) and filtered ([…]) to remove cell debris. The remaining kinases were produced in HEK-293 cells and subsequently tagged with DNA for qPCR detection. Streptavidin-coated magnetic beads were treated with biotinylated small molecule ligands for 30 minutes at room temperature to generate affinity resins for kinase assays. The liganded beads were blocked with excess biotin and washed with blocking buffer (SeaBlock (Pierce), 1% BSA, 0.05% Tween 20, 1 mM DTT) to remove unbound ligand and to reduce non-specific phage binding. Binding reactions were assembled by combining kinases, liganded affinity beads, and test compounds in 1× binding buffer (20% SeaBlock, 0.17×PBS, 0.05% Tween 20, 6 mM DTT). Test compounds were prepared as 100× stocks in 100% DMSO and directly diluted into the assay. All reactions were performed in polypropylene 384-well plates in a final volume of 0.02 ml. The assay plates were incubated at room temperature with shaking for 1 hour and the affinity beads were washed with wash buffer (1×PBS, 0.05% Tween 20). The beads were then re-suspended in elution buffer (1×PBS, 0.05% Tween 20, 0.5 μM non-biotinylated affinity ligand) and incubated at room temperature with shaking for 30 minutes. The kinase concentration in the eluates was measured by qPCR.

Data set [2] concerns the target T2, SRC (Homo sapiens, UniProt P12931).
T2 construct: purchased Eurofins DiscoverX Corporation
Briefly: KINOMEscan competition binding screen, SRC. Conditions: for remaining binding at 10 µM: read-out: % Ctrl @ 10 μM. The protocol: as §1, §2, §3

Data set [3] concerns the target T3, DDR2 (Homo sapiens, UniProt Q16832).
T3 construct: purchased Luceome Biotechnologies, LLC
T3 sequence (Q16832 22-855): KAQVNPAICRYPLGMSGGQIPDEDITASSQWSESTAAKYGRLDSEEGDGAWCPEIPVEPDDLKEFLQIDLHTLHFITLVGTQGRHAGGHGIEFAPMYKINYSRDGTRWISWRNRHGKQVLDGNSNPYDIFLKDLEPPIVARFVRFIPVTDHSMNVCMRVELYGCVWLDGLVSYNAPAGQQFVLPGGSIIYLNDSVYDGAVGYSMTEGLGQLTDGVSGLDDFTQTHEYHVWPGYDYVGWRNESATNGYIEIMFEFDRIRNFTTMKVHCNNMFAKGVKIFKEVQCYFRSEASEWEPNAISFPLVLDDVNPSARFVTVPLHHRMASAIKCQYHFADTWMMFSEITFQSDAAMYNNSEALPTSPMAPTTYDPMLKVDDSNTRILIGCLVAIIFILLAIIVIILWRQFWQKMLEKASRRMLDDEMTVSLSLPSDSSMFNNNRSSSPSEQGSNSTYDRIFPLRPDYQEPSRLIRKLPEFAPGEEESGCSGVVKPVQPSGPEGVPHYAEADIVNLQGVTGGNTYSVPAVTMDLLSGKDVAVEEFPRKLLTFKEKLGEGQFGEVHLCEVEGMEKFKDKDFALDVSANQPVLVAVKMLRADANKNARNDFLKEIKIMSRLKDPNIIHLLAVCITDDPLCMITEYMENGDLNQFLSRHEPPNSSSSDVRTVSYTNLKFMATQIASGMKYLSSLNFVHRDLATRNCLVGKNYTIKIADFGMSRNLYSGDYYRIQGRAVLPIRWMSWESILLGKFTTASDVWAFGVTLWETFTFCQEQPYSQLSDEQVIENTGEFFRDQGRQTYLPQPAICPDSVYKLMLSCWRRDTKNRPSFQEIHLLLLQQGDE
Briefly: KINASESEEKER competition binding assay, DDR2. Conditions: minimum 8-point curve, duplicate. The protocol: Kinase assays were performed using KINASESEEKER™ (Luceome Biotechnologies, LLC; Tucson, AZ). KINASESEEKER™ is a homogeneous competition binding assay in which the displacement of an active site-dependent probe by an inhibitor is measured by a change in luminescence signal. Luminescence readout translates into a highly sensitive and robust assay with low background and minimal interference from test compounds. See J. Am. Chem. Soc., 2010, 132, 11727-11735.
Stock solutions of compounds were serially diluted in DMSO to make assay stocks. Prior to initiating IC50 determination, the test compounds were evaluated for false positives against split-luciferase. The compounds were screened against kinases at a minimum of 8 different concentrations in duplicate. For kinase assays, a 24 μL aliquot of lysate containing Cfluc-kinase and Fos-Nfluc was incubated for 2 hours with either 1 μL of DMSO (for no-inhibitor control) or compound solution in DMSO in presence of a kinase specific probe. 80 μL of luciferin assay reagent was added to each solution and luminescence was immediately measured on a luminometer.
The % Inhibition and % Activity Remaining was calculated using the following equation: […]
The % Activity Remaining was plotted against compound concentration and the IC50 was determined for each compound using a minimum 8-point curve.

Data set [4] is described as follows: Maximum tolerated dose in wild-type C57BL/6 mice. Conditions: mouse, in vivo, ip, intraperitoneal injection, per day. The procedure: Wild-type C57BL/6 mice were dosed with BK40197 via intraperitoneal injection at 50 mg/kg (maximum tolerated dose) per day for five days before blood samples were taken and peripheral mast cells were isolated via flow cytometry. Cell gating was performed using antibodies against specific epitopes for cells: CD45 antibody for leukocytes, FceR1 antibody for mature mast cells, and CD117 antibody for immature and mature mast cells.

T2 sequence (P12931 whole entry): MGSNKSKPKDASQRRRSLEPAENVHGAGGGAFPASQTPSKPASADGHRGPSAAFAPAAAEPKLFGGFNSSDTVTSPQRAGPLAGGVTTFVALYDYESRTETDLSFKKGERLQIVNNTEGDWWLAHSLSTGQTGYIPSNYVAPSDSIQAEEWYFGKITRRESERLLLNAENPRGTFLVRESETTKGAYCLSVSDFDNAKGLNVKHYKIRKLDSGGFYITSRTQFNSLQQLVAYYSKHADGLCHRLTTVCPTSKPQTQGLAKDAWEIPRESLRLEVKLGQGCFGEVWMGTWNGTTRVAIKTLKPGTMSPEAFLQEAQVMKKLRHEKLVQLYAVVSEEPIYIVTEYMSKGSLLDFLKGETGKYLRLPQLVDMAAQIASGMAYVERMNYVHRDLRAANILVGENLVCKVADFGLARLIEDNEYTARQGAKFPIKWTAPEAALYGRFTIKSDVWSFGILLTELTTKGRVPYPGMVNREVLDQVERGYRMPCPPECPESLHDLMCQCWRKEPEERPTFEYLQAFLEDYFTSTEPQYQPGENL

For `Cc1cccc(-c2cc3nccc(Nc4ccccc4)c3s2)c1` [BK40143], the inhibition at 10 µM in data set [1] turned out to be 99.8%; in data set [2] it was 94.7%. Also, the remaining binding at 10 µM in data set [1] turned out to be 0.25%; in data set [2], 5.3%. In addition, in data set [3], the half-inhibitory concentration (IC50) was determined as 6.03 ± 0.93 µM.
On to `Cc1cccc(-c2cc3nccc(Nc4cccc(O)c4)c3s2)c1` [BK40196], for which, in data set [1], 10 µM produced 100% inhibition and the remaining binding at 10 µM is 0%. Further, in data set [2], the inhibition at 10 µM came to 99.9% and the remaining binding at 10 µM stood at 0.1%. In data set [3], this compound registered an IC50 of 0.922 ± 0.13 µM.
With `COc1cccc(Nc2ccnc3cc(-c4cccc(C)c4)sc23)c1` [BK40195], the inhibition at 10 µM in data set [1] came out at 99.8%; in data set [2] it was 99.7%. Besides, the remaining binding at 10 µM in data set [1] amounted to 0.2%; in data set [2], 0.35%. The same compound gave an IC50 in data set [3] of 1.9 ± 0.26 µM.
Turning to `Cc1cccc(-c2cc3nccc(N4CCOCC4)c3s2)c1` [BK40197], the inhibition at 10 µM in data set [1] stood at 99.7%; in data set [2], 19%. Besides, the remaining binding at 10 µM worked out at 0.35% in data set [1] and 81% in data set [2]. The compound also had an MTD at 5 days in data set [4] of 50 mg/kg.
